In series [1] the test system is Th1 (T helper 1 cell) to Th2 (T helper 2 cell) shift. Particulars: animal studies (Yang, 2004; Brück, 2011); cited from earlier work.
In a further series the test system is Brown Norway rats. Particulars: rat, in vivo. The procedure: Prior to any experimental procedure, clinical observations were performed daily, body weights were obtained, intraocular pressure (IOP) was measured and detailed ocular examinations were performed on both eyes.
Clinical observations were performed daily according to Table 6 below:
Animals were weighed weekly prior to initiation of dosing. The first day the rats are weighed was designated as Study Day 1, and the beginning of Study Week 1.
Animals selected for the study were examined prior to the initial administration of the test or the control articles to ensure that both eyes were free of abnormality, damage, and disease. Both eyes were examined, scored and recorded prior to the initial dose administration using a hand held slit-lamp and a direct ophthalmoscope or the surgical microscope according to the Classification System for Grading Ocular Lesions as described in Table 7, and the Ocular Posterior Segment Scoring Scale of Table 8. Posterior segment examination was performed after topical application of Tropicamide in the conscious state, or after the rats are anesthetized with isoflorane inhalation. Only rats showing no signs of eye irritation, ocular defects, or preexisting corneal injury were used in the study. […]
Both eyes were examined and scored at one week after the second HSI and on the day of euthanasia, for a total of two times. […]

The next series relates to optic nerve. Kind of series: Optic nerve injury grading (toluidine blue cross-sections, Grade 1-5) in rat OHT model. Conditions: for Mean ON Injury Grade (Mean±SD), Non-OHT (control) eyes / Mean ON Injury Grade (Mean±SD), OHT optic nerves: grade scale 1-5; for Mean ON Injury Grade (Mean±SD), OHT optic nerves: vehicle 3.0±1.6. The format is in vivo, Brown Norway rats (Rattus norvegicus). As to the method: Animals were euthanized 5 weeks after the 2nd HSI. The retinas were flat-mounted, slide IDs were masked and 8 regions per retina were imaged using a confocal microscope. RGC at these regions were counted using the Image J software. After the optic nerves were extracted, they were plastic-embedded, sectioned and stained with Toluidine Blue at Schepens Eye Research Institute, Boston, Mass.. The injury in the optic nerves was evaluated and graded by microscopic examination in a masked fashion. The eyes were immediately enucleated with the optic nerve attached. An approximately 2.0 mm piece of the ON proximal to the globe is separated and labeled with tissue mark to indicate the orientation of the nerve. The ON piece is placed in Modified Karnovsky's Fixative in 0.1 M Na cacodylate buffer and kept at 4±2° C. overnight. The next day ON piece was washed at least three times for at least 10 minutes each in 0.1 M Na cacodylate buffer and stored in 0.1 M Na cacodylate buffer at 4±2° C. After specimens were transferred to a contracted processing facility, within a week, the optic nerves were processed for plastic embedding: After post-fixation in 2% osmium tetroxide in 0.1 M Na cacodylate buffer for at least 1.5 hours, ONs were dehydrated in graded ethanols, transitioned in propylene oxide and infiltrated with propylene oxide and epon mixtures. One to five (1-5) μm-thick cross-sections were taken via a microtome at the ON end approximately 2.0 mm away from the globe. ON sections were stained with 1% toluidine blue and cover-slipped. The processed specimens were returned. The identification of the ONs were masked prior to injury analysis. The ON cross-sections were analyzed for injury by light microscopy as follows: The damaging effect of the sustained IOP elevation was assessed by qualitative microscopic analysis of the ON cross-sections using a well-established grading system described in Table 9. This method allowed damage analysis of the entire retinal ganglion cell output (the ON) in one section by light microscopy and was more sensitive than counting total axons especially if there is mild nerve damage. […] The extent of injury was then graded by light microscopy based on a pattern of damage observed in rats with elevated IOP. [table] The damaging effect of the sustained IOP elevation was assessed by qualitative microscopic analysis of the ON cross-sections using a well-established grading system described in Table 9. This method allowed damage analysis of the entire retinal ganglion cell output (the ON) in one section by light microscopy and was more sensitive than counting total axons especially if there is mild nerve damage. […] The extent of injury was then graded by light microscopy based on a pattern of damage observed in rats with elevated IOP.

Consider `CCN(C(=O)c1c(O)c2c(Cl)cccc2n(C)c1=O)c1ccccc1` [Laquinimod], for which the “Th1 to Th2 shift” value in series [1] was “causes a Th1”. Also, the “Weight gained between day of dosing and day of euthanasia, groups compared” value in the series with Brown Norway rats was “did not differ”. Moreover, the “Mean ON Injury Grade (Mean±SD), Non-OHT (control) eyes” value in the series with optic nerve (Group 1, topical 1% laquinimod (left eye dosed only)) is listed as 1.1±0.1; with optic nerve (Group 3, topical 4% laquinimod (left eye dosed only)) it was 1.2±0.2; with optic nerve (Group 4, topical 0.25% laquinimod (left eye dosed only)) it was 1.2±0.3; with optic nerve (Group 5, oral 0.1% laquinimod), 1.2±0.2. Besides, the “Mean ON Injury Grade (Mean±SD), OHT optic nerves” value turned out to be 2.5±1.3 in the series on optic nerve (Group 1, topical 1% laquinimod); 3.0±1.5 in the series with optic nerve (Group 3, topical 4% laquinimod); 2.8±1.3 with optic nerve (Group 4, topical 0.25% laquinimod); 2.7±1.5 in the series with optic nerve (Group 5, oral 0.1% laquinimod). Also, the “Mean ON injury grades, OHT eyes compared to Non-OHT control eyes, two-tailed paired-t tests” value with optic nerve (all groups, P<0.05) is reported as “significantly greater in the OHT eyes”. For the same compound, the “Mean ON injury grades in OHT and Non-OHT eyes versus groups, Two-Way ANOVA eye versus group interaction” value in the series on optic nerve (all groups, P=0.98) was “groups did not differ”.

The values are drawn from US20170368054A1, “Treatment of Glaucoma Using Laquinimod” (Teva Pharmaceutical Industries, Ltd., priority 2013, published 2017).
